Results reported in the NIST ThermoML archive (doi:10.1016/j.jct.2016.08.002).
± gives the expanded uncertainty stated by the source.

Assays:
[1] = for vapor or sublimation pressure: Transpiration method; for Normal melting temperature: DTA
[2] = Molar enthalpy of transition or fusion; details: Crystal; DSC

NC(=O)c1cccnc1 [3-pyridinecarboxamide]
[1], Crystal
Details	vapor or sublimation pressure [kPa]
353.2 K	0.00036 ± 3e-05
358.3 K	0.0006 ± 5e-05
363.4 K	0.00104 ± 7e-05
363.5 K	0.00105 ± 7e-05
370.6 K	0.00207 ± 0.00015
378.6 K	0.00436 ± 0.00028
383.8 K	0.0069 ± 0.00049
388.8 K	0.01096 ± 0.00074
394.9 K	0.01844 ± 0.0012
398.9 K	0.02467 ± 0.0016

Details	Normal melting temperature [°C]
[1], Crystal	130.1 ± 1.1

Details	Molar enthalpy of transition or fusion [kJ/mol]
[2]	23.9 ± 1.1

NC(=O)c1ccccn1 [2-pyridinecarboxamide]
[1]
Details	vapor or sublimation pressure [kPa]
343 K, Crystal	0.0079 ± 0.0005
348 K, Crystal	0.0125 ± 0.0008
353.1 K, Crystal	0.0192 ± 0.0013
353.2 K, Crystal	0.0194 ± 0.0013
358.2 K, Crystal	0.0302 ± 0.002
363.3 K, Crystal	0.0459 ± 0.003
368.3 K, Crystal	0.0687 ± 0.0043
373.3 K, Crystal	0.1028 ± 0.0065
385.4 K, Liquid	0.2394 ± 0.015
390.4 K, Liquid	0.3199 ± 0.02
395.5 K, Liquid	0.416 ± 0.026
400.6 K, Liquid	0.5427 ± 0.034
405.6 K, Liquid	0.7049 ± 0.044
410.7 K, Liquid	0.9324 ± 0.058
415.8 K, Liquid	1.202 ± 0.074

Details	Normal melting temperature [°C]
[1], Crystal	106.4 ± 1.1

Details	Molar enthalpy of transition or fusion [kJ/mol]
[2]	19.2 ± 1.1

NC(=O)c1ccncc1 [4-pyridinecarboxamide]
[1], Crystal
Details	vapor or sublimation pressure [kPa]
358.2 K	0.00043 ± 4e-05
363.3 K	0.00072 ± 5e-05
368.4 K	0.00117 ± 8e-05
373.4 K	0.0019 ± 0.00013
373.5 K	0.00191 ± 0.00013
378.5 K	0.00296 ± 0.0002
383.7 K	0.00472 ± 0.0003
388.7 K	0.00724 ± 0.00048
393.8 K	0.01115 ± 0.00074
398.8 K	0.01672 ± 0.0011
404 K	0.02482 ± 0.0016
409 K	0.03719 ± 0.0024

Details	Normal melting temperature [°C]
[1], Crystal	155.2 ± 1.1

Details	Molar enthalpy of transition or fusion [kJ/mol]
[2]	23.1 ± 1.1
